Results taken from patent US20200157151A1, “PEPTIDE COMPOUNDS, CONJUGATE COMPOUNDS AND USES THEREOF FOR TREATING INFLAMMATORY DISEASES” (TRANSFERT PLUS, S.E.C., priority 2017, published 2020).
Square brackets hold non-standard residues; d marks the D form. Peptide text beside a SMILES is read from it. Nle = CCCC[C@H](N)C(=O)O

Tests used:
[1] = system: human HT-29 colorectal cancer cells; test: Time-course uptake by flow cytometry (cell-associated fluorescence); format: cell-based; details: 5 μM, 37° C., HT-29 cells, FIG. 4B
Experimental: FIG. 4 is a series of charts illustrating higher and sustained uptake of KBC-201 (FIG. 4A). At the same concentration (5 μM), KBC-201 generates about half the fluorescence compared to free curcumin (Ex.: 488 nm, Em.: 530 nm) (FIG. 4B). Time-course uptake of KBC-201 (full line) and free curcumin (dotted line) in human HT-29 colorectal cancer cells. HT-29 cells were incubated at 37° C. with 5 μM of KBC-201 or curcumin at various times, trypsinized, washed, and cell-associated fluorescence uptake was quantified using a BD Accuri™ C6 flow cytometer.
(§1) The uptake of Curcumin conjugate or free Curcumin was measured as a function of time in human HT-29 colon cancer cells (FIG. 4). […] Indeed, the Curcumin conjugate (KBC-201) is less fluorescent by about 2-3 folds when compared to free Curcumin. […] The uptake of both KBC-201 and free Curcumin was next measured in the presence of Sortilin ligands (FIG. 5B). […] Taken together, data of the pharmacological inhibition using Sortilin ligands and the silencing of Sortlin expression confirm that the Curcumin conjugate is internalized via a Sortilin-dependent mechanism.

[2] = Stability at room temperature followed by absorbance over time; details: FIG. 11
Description: FIG. 11 is a graph showing absorbance of Curcumin conjugates and free Curcumin.

Sortilin receptor = biological target: T1, Sortilin receptor (Homo sapiens, UniProt Q99523); test: Sortilin-mediated uptake in HT-29 cells (siRNA silencing and competition with Sortilin ligands); format: cell-based; details: 5 μM; for Uptake when Sortilin expression is reduced by siRNA: 2 h, 37° C., siSortilin vs siScrambled HT-29 cells, FIG. 5A; for Uptake in the presence of Sortilin ligands: excess free peptide (50 μM), neurotensin (10 μM) or progranulin (1 nM), HT-29 cells, FIG. 5B
T1 construct: Sortilin-deficient (siSortilin) HT-29 colorectal cancer cells; endogenous in cells; host or cells: HT-29 human colorectal cancer cells
T1 sequence (Q99523 78-831): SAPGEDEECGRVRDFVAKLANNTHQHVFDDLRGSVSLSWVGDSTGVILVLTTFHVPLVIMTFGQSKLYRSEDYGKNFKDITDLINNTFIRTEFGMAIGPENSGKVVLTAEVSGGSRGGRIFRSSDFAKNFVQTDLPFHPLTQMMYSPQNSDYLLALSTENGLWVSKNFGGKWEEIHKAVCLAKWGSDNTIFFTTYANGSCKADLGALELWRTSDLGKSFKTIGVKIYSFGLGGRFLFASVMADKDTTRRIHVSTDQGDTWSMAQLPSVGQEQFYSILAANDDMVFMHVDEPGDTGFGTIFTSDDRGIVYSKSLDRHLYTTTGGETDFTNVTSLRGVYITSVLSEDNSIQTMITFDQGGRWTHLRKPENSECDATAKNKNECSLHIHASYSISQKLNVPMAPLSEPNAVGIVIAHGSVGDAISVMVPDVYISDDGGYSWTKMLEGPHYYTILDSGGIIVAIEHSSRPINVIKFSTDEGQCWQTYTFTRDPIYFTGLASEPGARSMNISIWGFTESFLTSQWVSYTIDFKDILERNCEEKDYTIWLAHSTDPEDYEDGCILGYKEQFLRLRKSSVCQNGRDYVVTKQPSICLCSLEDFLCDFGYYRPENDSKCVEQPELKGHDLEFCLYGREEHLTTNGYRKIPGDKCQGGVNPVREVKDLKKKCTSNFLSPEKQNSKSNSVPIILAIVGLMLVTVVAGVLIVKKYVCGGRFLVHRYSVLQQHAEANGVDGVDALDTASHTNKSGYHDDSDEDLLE
Experimental: FIG. 5 is a series of charts showing Sortilin-mediated uptake of KBC-201 in human colorectal cancer cells, FIG. 5A) Uptake of 5 μM of KBC-201 or free curcumin were performed at 37° C. in control (siScrambled) or Sortilin-deficient (siSortilin) HT-29 colorectal cancer cells. After a 2 h incubation, cells were trypsinized to remove non-internalized products, washed 3-times with ice-cold PBS and cell-associated fluorescence was quantified using a BD Accuri™ C6 flow cytometer. […] Cell-associated fluorescence uptake was quantified using a BD Accuri™ C6 flow cytometer.
as §1

[3] = biological target: T2, Human recombinant Sortilin chimera protein (Homo sapiens, UniProt Q99523); test: Surface plasmon resonance (Biacore) interaction with immobilized Sortilin; format: binding; details: SPR; for Affinity for Sortilin, in words: comparison between peptides and Sortilin ligands
T2 construct: unnamed fusion partner or tag ('chimera'); purchased R&D Systems 3154-ST
T2 sequence (Q99523 78-755 limits assumed): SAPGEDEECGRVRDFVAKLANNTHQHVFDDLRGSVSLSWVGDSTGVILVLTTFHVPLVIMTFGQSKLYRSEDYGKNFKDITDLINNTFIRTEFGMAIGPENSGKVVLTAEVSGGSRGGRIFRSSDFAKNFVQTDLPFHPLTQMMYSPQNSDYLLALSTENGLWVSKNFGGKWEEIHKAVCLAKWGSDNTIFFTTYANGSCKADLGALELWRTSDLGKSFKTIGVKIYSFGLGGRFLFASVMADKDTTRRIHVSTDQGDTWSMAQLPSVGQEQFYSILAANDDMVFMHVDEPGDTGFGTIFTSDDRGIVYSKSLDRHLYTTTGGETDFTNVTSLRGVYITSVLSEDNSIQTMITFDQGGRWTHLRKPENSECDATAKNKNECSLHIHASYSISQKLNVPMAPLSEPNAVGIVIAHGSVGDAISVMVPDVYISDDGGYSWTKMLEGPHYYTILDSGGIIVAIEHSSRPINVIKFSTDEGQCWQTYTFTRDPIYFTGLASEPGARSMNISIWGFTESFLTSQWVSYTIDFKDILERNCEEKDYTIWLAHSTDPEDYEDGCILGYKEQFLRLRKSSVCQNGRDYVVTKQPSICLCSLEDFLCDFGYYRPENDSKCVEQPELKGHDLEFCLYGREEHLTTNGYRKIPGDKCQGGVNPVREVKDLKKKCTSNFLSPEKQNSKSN
Description: FIG. 12 is schematic representation of real time interaction analysis using Surface Plasmon Resonance (SPR) and a Biacore instrument.
Further tests were made so as to investigate interaction of the peptide compounds of the present disclosure with Sortilin. Such tests were made using real-time surface plasmon resonance (Biacore) (see FIG. 12).

[4] = system: TNF-α-induced IκB phosphorylation in human HT-29 colon cancer cells; test: Inhibition of TNF-α-induced IκB phosphorylation in HT-29 cells; format: cell-based; details: 24 h pre-treatment, 100 ng/mL TNF-α 5 min, HT-29, FIG. 17; at a lower concentration than Curcumin
Description: FIG. 8A) Immunodetection of IκB phosphorylation by TNF-α is shown.
One of the inflammatory pathways induced by TNF-α leads to the phosphorylation of IkB (FIG. 1), a key protein in inflammation. As expected, the addition of TNF-α to human HT-29 colon cancer cells triggered the phosphorylation of IkB (pIkB) (FIG. 8).
One of the inflammatory pathways induced by TNF-α leads to the phosphorylation IkB (see FIG. 1), a key protein in inflammation. It was observed that the addition of TNF-α to human HT-29 colon cancer cells triggered the phosphorylation of IkB (pIkB) (FIGS. 17A and 17B).

[5] = system: TNF-α-induced NFκB phosphorylation in human MDA-MB231 breast cancer cells; test: Inhibition of TNF-α-induced NFκB phosphorylation in MDA-MB231 cells; format: cell-based; details: 24 h pre-treatment, 100 ng/mL TNF-α 5 min, MDA-MB231, FIG. 18
Description: FIG. 9A) Immunodetection of phosphorylated NFκB by TNF-α is shown.
FIGS. 9 and 10 are other examples of the Curcumin conjugate (KBC-201)'s effect on the TNF-α-induced signaling pathways in two other cancer cell models.
Results presented in FIGS. 18A and 18B show now that the peptide alone (KBP-201) can reduce the TNF-α-induced NFκB phosphorylation by about 30%.
In FIG. 18A, immunodetection of NFκB phosphorylation by TNF-α is shown.

[6] = system: TNF-α-induced COX-2 expression in human HT-29 colon cancer cells; details: 2 h pre-treatment, 10 ng/mL TNF-α 24 h, HT-29, FIG. 7
Experimental: (§2) Cells were pre-treated for 2 h with indicated compounds in serum-free medium before the addition of 10 ng/mL TNF-α for 24 h. Cells were lysed and the levels protein expression of COX-2 were monitored by immunoblotting. […] For each sample, the COX-2 level was corrected for GAPDH (a loading control) and normalized to those seen in TNF-α control (value=100%).
as §2, with “the” for “the levels”, “expression levels” for “expression”

Q: For `COc1cc(/C=C/C(=O)CC(=O)/C=C/c2ccc(O)c(OC)c2)ccc1O` [Curcumin, reference compound], which “Uptake over time (cell-associated fluorescence)” value ([1]; listed as free Curcumin) is on record?
A: transient and low intracellular accumulation

Q: What about the “Uptake over time (cell-associated fluorescence)” value ([1]; listed as free curcumin) of the same compound?
A: transient uptake

Q: What about the “Stability (absorbance over time)” value [2] of the same compound?
A: decreased more rapidly over time

Q: And the “Uptake when Sortilin expression is reduced by siRNA” value (Sortilin receptor; listed as free Curcumin)?
A: unaffected

Q: And the “Uptake when Sortilin expression is reduced by siRNA” value (Sortilin receptor; listed as free curcumin)?
A: not that of free curcumin

Q: And the “Uptake in the presence of Sortilin ligands” value (Sortilin receptor; listed as free Curcumin)?
A: unaffected by none of them

Q: What about the “Uptake in the presence of Sortilin ligands” value (Sortilin receptor; listed as free curcumin) of the same compound?
A: not that of free curcumin

Q: Which “Affinity for Sortilin, in words” value [3] does the source give for `CCCC[C@H](NC(=O)[C@H](CC(N)=O)NC(=O)[C@H](CCCNC(=N)N)NC(=O)[C@@H](NC(=O)CNC(=O)[C@H](C)NC(=O)[C@H](CCCCN)NC(=O)[C@H](C)NC(=O)[C@H](CCCNC(=N)N)NC(=O)[C@@H](NC(=O)CNC(C)=O)C(C)C)C(C)C)C(=O)N[C@@H](Cc1ccccc1)C(=O)N[C@@H](CCCCN)C(=O)N[C@@H](CO)C(=O)N[C@@H](CCC(=O)O)C(=O)N[C@@H](CO)C(=O)N[C@@H](Cc1ccc(O)cc1)C(=O)O` [KBP-106] (Ac-GVRAKAGVRN[Nle]FKSESY-OH; C-terminus assumed) here?
A: better affinity for Sortilin than Neurotensin

Q: With `CC(=O)N[C@@H](Cc1ccc(O)cc1)C(=O)N[C@@H](CCCCN)C(=O)N[C@@H](CO)C(=O)N[C@@H](CC(C)C)C(=O)N[C@@H](CCCNC(=N)N)C(=O)N[C@@H](CCCNC(=N)N)C(=O)N[C@@H](CCCCN)C(=O)N[C@@H](C)C(=O)N1CCC[C@H]1C(=O)N[C@@H](CCCNC(=N)N)C(=O)N[C@@H](Cc1c[nH]c2ccccc12)C(=O)N[C@@H](CC(=O)O)C(=O)N[C@@H](C)C(=O)N1CCC[C@H]1C(=O)N[C@@H](CC(C)C)C(=O)N[C@@H](CCCNC(=N)N)C(=O)N[C@@H](CC(=O)O)C(=O)N1CCC[C@H]1C(=O)N[C@@H](C)C(=O)N[C@@H](CC(C)C)C(=O)N[C@@H](CCCNC(=N)N)C(=O)N[C@@H](CCC(N)=O)C(=O)N[C@@H](CC(C)C)C(=O)N[C@@H](CC(C)C)C(=O)O` [KBP-201] as the compound, how does the “Reduction of TNF-α-induced phosphorylation of IkB, maximal effect” value [4] read?
A: 40%

Q: And the “Affinity for Sortilin, in words” value [3]?
A: better affinity for Sortilin than Neurotensin

Q: And the “Affinity for Sortilin, in words” value ([3]; listed as KB-P201)?
A: better affinity

Q: And the “Reduction of TNF-α-induced NFκB phosphorylation” value [5]?
A: about 30%

Q: With “Acetyl-GVRAK(curcumin)AGVRN(Nle)FK(curcumin)SESY [KBC-106]” as the compound, how does the “Stability (absorbance over time)” value [2] read?
A: more stable

Q: And the “Inhibition of TNFα-induced COX-2 expression, comparison of two conjugates” value [6]?
A: more potent than free Curcumin

Q: Which Kd ([3]; Sortilin immobilized on CM5 chip, KD calculated with Bia Evaluation software from sensorgrams of FIGS. 13-16, read-out: Affinity (KD)) does the source give for “RAP: receptor-associated protein, a Sortilin ligand [reference compound]” here?
A: 4.2 nM
